Data published in US10876058B2, “Method for prevention of biodeterioration of fuels” (priority 2013, dated 2020).
Residues, ends and D or L forms follow the SMILES beside them. No end group written: not given here. *: point of attachment. βNA = c1ccc2cc(N*)ccc2c1

Experiments:
[1] = Stability in the presence of fuel; format: physicochemical; conditions: activity was preserved
From the text: Additional experimental results (see FIG. 10) confirm that the growth inhibition effect and the inactivity of efflux pump were effective for other bacteria, including Pseudomonas aeruginosa and Acinetobacter venetianus. The c-capped dipeptides were stable in the presence of fuel and activity was preserved.

[2] = tested on: Acinetobacter venetianus; test: Efflux pump blocker growth inhibition, Acinetobacter venetianus (FIG. 10); format: cell-based; conditions: fuel present (FIG. 10)
Protocol: (§1) C-capped dipeptide efflux pump blocker, Phe-Arg β-naphthylamide dihydrochloride (MC-207,110) (Sigma Aldrich) was added to the fuel phase and the aqueous (minimal media M9, Bushnell-Haas, or water) phase of 1:1 fuel-minimal media mixtures containing environmental bacteria (Pseudomonas, Acinetobacter, Marinobacter, and Dietzia) at concentrations ranging from 1 to 1×10^9 cells/mL. Phe-Arg β-naphthylamide dihydrochloride was added to the fuel at concentrations of 0 μg/mL, 20 μg/mL, 40 μg/mL, 60 μg/mL, 80 μg/mL, and 100 μg/mL. Control experiments were performed by adding 0 μg/mL to 120 μg/mL of Phe-Arg β-naphthylamide to minimal media containing bacteria and glycerol as the energy source, but not fuel.
(§2) The antimicrobial effect of the efflux pump blocker was established daily by measuring growth through absorbance readings (OD600), DNA quantitation through qPCR, and colony counting techniques.

[3] = tested on: environmental bacteria (Pseudomonas, Acinetobacter, Marinobacter, and Dietzia); test: Efflux pump blocker growth inhibition in 1:1 fuel-minimal media mixtures; format: cell-based; conditions: for bacterial growth inhibition: fuel present (FIGS. 8 and 10)
Protocol: as §1, §2

[4] = tested on: Pseudomonas aeruginosa; test: Efflux pump blocker growth inhibition, Pseudomonas aeruginosa (FIG. 10); format: cell-based; conditions: fuel present (FIG. 10)
Protocol: as §1, §2

[5] = tested on: microbial growth in the aqueous phase; test: Treatment solution administered to jet fuel, microbial growth in the aqueous phase (FIG. 12); format: cell-based; conditions: 80 μg/mL final in jet fuel; stock 25 mg/mL in absolute ethanol, DiEGME or water; initial and days one to three (FIG. 12)
Protocol: Treatment solutions were prepared, as described above, with 25 mg/mL efflux pump inhibitor in various solvents, including absolute ethanol, DiEGME, and water. The treatment solutions were administrated to jet fuel at a final concentration in fuel of 0 μg/mL, 40 μg/mL, and 80 μg/mL. FIG. 12 illustrates results of the 80 μg/mL treatment on initial measured microbial growth in the aqueous phase as well as microbial growth after one, two, and three days.

[6] = tested on: E. coli; test: Antimicrobial peptide growth inhibition, E. coli (FIG. 6); format: cell-based; conditions: absence of fuel
Protocol: (§3) Protegrin-1 and Magainin-2 antimicrobial peptides were added individually to the fuel phase and the aqueous (minimal media M9, Bushnell-Haas, or water) phase of 1:1 fuel-growth media mixtures containing environmental bacteria (E. coli, Bacillus, and Pseudomonas) at concentrations ranging from 1 to 1×10^9 cells/mL. Magainin 1 and 2 were obtained from Sigma-Aldrich (St. Louis, Mo.). Protegrin-1 was obtained from AnaSpec (Fremont, Calif.) or produced from a transgenic construct containing a fusion between green fluorescent protein (“GFP”) and the Protegrin-1 coding gene. The GFP-Protegrin fusion was purified by affinity chromatography and Protegrin cleaved from the fusion for use, as pure, or as a fusion in the bioassays.
(§4) The antimicrobial peptides were added at the following concentrations: 0 μg/mL, 1 μg/mL, 2.5 μg/mL, 5 μg/mL, 10 μg/mL, 20 μg/mL, 50 μg/mL, 75 μg/mL, 100 μg/mL, and 125 μg/mL in the presence and absence of fuel. Experiments using minimal media with bacteria in the presence of fuel were designed to measure the effect of fuel in combination with the antimicrobial peptide control. Control experiments contained glycerol instead of fuel as the energy source.
(§5) The antimicrobial effect of the peptides was measured every 24 hours for four days after inoculation by measuring growth through absorbance readings (OD600), DNA quantitation through qPCR, and colony counting techniques.

[7] = tested on: environmental bacteria (E. coli, Bacillus, and Pseudomonas); test: Antimicrobial peptide growth inhibition in 1:1 fuel-growth media mixtures; format: cell-based; conditions: for bacteria growth after addition to fuel: added to fuel (aqueous and fuel phase)
Protocol: as §3, §4, §5

[8] = Partition from fuel into the aqueous phase; format: physicochemical; conditions: added to fuel (aqueous and fuel phase)
[9] = tested on: Pseudomonas; test: Antimicrobial peptide growth inhibition, Pseudomonas (FIG. 7); format: cell-based; conditions: absence of fuel
Protocol: as §3, §4, §5

In the case of `Cl.Cl.N=C(N)NCCC[C@H](NC(=O)[C@@H](N)Cc1ccccc1)C(=O)Nc1ccc2ccccc2c1` [c-capped dipeptide, Phe-Arg β-naphthylamide dihydrochloride] (H-Phe-Arg-βNA), the “stability in the presence of fuel” value [1] is reported as “stable”, the “growth inhibition effect and inactivity of efflux pump” value [2] is reported as “effective” and the bacterial growth inhibition ([3]; 20 μg/mL) is reported as “Partial bacterial growth inhibition”. The bacterial growth inhibition ([3]; 40 μg/mL) was “complete growth inhibition”, the bacterial growth inhibition ([3]; 60 μg/mL) was “complete growth inhibition” and the bacterial growth inhibition ([3]; 80 μg/mL) was “complete growth inhibition”. The bacterial growth inhibition ([3]; 100 μg/mL) was “complete growth inhibition”, the “inhibitory effect on bacterial growth” value ([3]; fuel not present (glycerol control), concentrations as high as 100 μg/mL (FIG. 9)) was “not observed” and the “concentration giving complete growth inhibition for up to 17 days” value ([3]; fuel present, up to 17 days (FIG. 11)) was “greater than 80 μg/mL”. For the same compound, the “microbial growth and proliferation under periodic administration” value ([3]; low concentration (less than 20 μg/mL) every 3 to 4 days) was “prevented microbial growth and proliferation”, the “growth inhibition effect and inactivity of efflux pump” value [4] was “effective” and the “microbial growth in the aqueous phase” value [5] was “significantly decreased microbial growth”.
In the case of “Protegrin-1 (RGGRLCYCRRRFCVCVGR; ends and bridges not checked; cysteine pairing not given here; UniProt P32194 131-148, looked up) [18 amino acid cysteine-rich β-sheet antimicrobial peptide; from AnaSpec or cleaved from a GFP-Protegrin fusion]”, the “concentration required to completely inhibit growth” value [6] is reported as 5 µg/mL, the “bacteria growth after addition to fuel” value [7] is reported as “inhibited bacteria growth” and the “concentration that prevented microbial growth” value ([7]; peptide added directly to the fuel phase) is reported as “less than or equal to 1 μg/mL”. For the same compound, the “partition between fuel and aqueous phase” value [8] was “partitioned into the aqueous phase” and the “concentration required to completely inhibit growth” value [9] was 5 µg/mL.
With Magainin-2 the “concentration required to completely inhibit bacteria growth” value ([7]; absence of fuel (FIG. 4)) was 125 µg/mL, the “bacteria growth after addition to fuel” value [7] was “inhibited bacteria growth” and the “partition between fuel and aqueous phase” value [8] was “partitioned into the aqueous phase”.
